Test system: 945468-187-T-J2-PDC spheroids viability
Experiment: Anticancer human tumor 945468-187-T-J2-PDC patient-derived rectal carcinoma cell line growth inhibition [PI3K]
Settings: spheroids with HUVEC and MSC; for IC50: curve of first compound; for viability, T/C: stronger effect = lower value
In short: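 Stroma-containing spheroids: tumor line, pooled-donor HUVEC, hMSC. Treatments: targeted agents with PI3K inhibitors. Dosing: clinically relevant, half-log spacing, 10 microM ceiling without known Cmax. Read-out: cell viability.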

[1] = second compound 0.0316 µM, first compound 0.0316 µM
[2] = second compound 0.0316 µM, first compound 0.1 µM
[3] = second compound 0.1 µM, first compound 0.0316 µM
[4] = second compound 0.1 µM, first compound 0.1 µM
[5] = second compound 0.316 µM, first compound 0.0316 µM
[6] = second compound 0.316 µM, first compound 0.1 µM
[7] = second compound 1 µM, first compound 0.0316 µM
[8] = second compound 1 µM, first compound 0.1 µM
[9] = second compound 0.0316 µM, first compound 0.316 µM
[10] = second compound 0.0316 µM, first compound 1 µM
[11] = second compound 0.0316 µM, first compound 3.16 µM
[12] = second compound 0.0316 µM, first compound 10 µM
[13] = second compound 0.1 µM, first compound 0.316 µM
[14] = second compound 0.1 µM, first compound 1 µM
[15] = second compound 0.1 µM, first compound 3.16 µM
[16] = second compound 0.1 µM, first compound 10 µM
[17] = second compound 0.316 µM, first compound 0.316 µM
[18] = second compound 0.316 µM, first compound 1 µM
[19] = second compound 0.316 µM, first compound 3.16 µM
[20] = second compound 0.316 µM, first compound 10 µM
[21] = second compound 1 µM, first compound 0.316 µM
[22] = second compound 1 µM, first compound 1 µM
[23] = second compound 1 µM, first compound 3.16 µM
[24] = second compound 1 µM, first compound 10 µM
[25] = second compound 3.16 µM, first compound 0.0316 µM
[26] = second compound 3.16 µM, first compound 0.1 µM
[27] = second compound 3.16 µM, first compound 0.316 µM
[28] = second compound 3.16 µM, first compound 1 µM
[29] = second compound 3.16 µM, first compound 3.16 µM
[30] = second compound 3.16 µM, first compound 10 µM
[31] = second compound 10 µM, first compound 0.0316 µM
[32] = second compound 10 µM, first compound 0.1 µM
[33] = second compound 10 µM, first compound 0.316 µM
[34] = second compound 10 µM, first compound 1 µM
[35] = second compound 10 µM, first compound 3.16 µM
[36] = second compound 10 µM, first compound 10 µM
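Also: spheroids exposed to compounds for seven days before reading.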

SMILES: Cn1ncnc1[C@H]1c2n[nH]c(=O)c3cc(F)cc(c23)N[C@@H]1c1ccc(F)cc1 + COc1c(OCCCN2CCOCC2)ccc2c3n(c(=NC(=O)c4cnc(N)nc4)nc12)CCN3
- IC50 (second compound 0.00316 µM): > 0.1 µM
- IC50 (second compound 0.01 µM): > 0.1 µM
- IC50 (second compound 0.0316 µM): > 0.1 µM
- IC50 (second compound 0.1 µM): > 0.1 µM
- IC50 (second compound 0.316 µM): < 0.000316 µM
- IC50 (second compound 1 µM): < 0.000316 µM
- viability, T/C (second compound 0.00316 µM, first compound 0.000316 µM): 107%
- viability, T/C (second compound 0.00316 µM, first compound 0.001 µM): 114%
- viability, T/C (second compound 0.00316 µM, first compound 0.00316 µM): 90.7%
- viability, T/C (second compound 0.00316 µM, first compound 0.01 µM): 104%
- viability, T/C (second compound 0.00316 µM, first compound 0.0316 µM): 97.3%
- viability, T/C (second compound 0.00316 µM, first compound 0.1 µM): 108%
- viability, T/C (second compound 0.01 µM, first compound 0.000316 µM): 105%
- viability, T/C (second compound 0.01 µM, first compound 0.001 µM): 128%
- viability, T/C (second compound 0.01 µM, first compound 0.00316 µM): 101%
- viability, T/C (second compound 0.01 µM, first compound 0.01 µM): 84%
- viability, T/C (second compound 0.01 µM, first compound 0.0316 µM): 98.4%
- viability, T/C (second compound 0.01 µM, first compound 0.1 µM): 96.8%
- viability, T/C (second compound 0.0316 µM, first compound 0.000316 µM): 98.7%
- viability, T/C (second compound 0.0316 µM, first compound 0.001 µM): 107%
- viability, T/C (second compound 0.0316 µM, first compound 0.00316 µM): 85.3%
- viability, T/C (second compound 0.0316 µM, first compound 0.01 µM): 104%
- viability, T/C [1]: 95.2%
- viability, T/C [2]: 88.5%
- viability, T/C (second compound 0.1 µM, first compound 0.000316 µM): 93.2%
- viability, T/C (second compound 0.1 µM, first compound 0.001 µM): 75.7%
- viability, T/C (second compound 0.1 µM, first compound 0.00316 µM): 83.6%
- viability, T/C (second compound 0.1 µM, first compound 0.01 µM): 81.3%
- viability, T/C [3]: 84.3%
- viability, T/C [4]: 88.1%
- viability, T/C (second compound 0.316 µM, first compound 0.000316 µM): 34%
- viability, T/C (second compound 0.316 µM, first compound 0.001 µM): 35.2%
- viability, T/C (second compound 0.316 µM, first compound 0.00316 µM): 43.5%
- viability, T/C (second compound 0.316 µM, first compound 0.01 µM): 39.3%
- viability, T/C [5]: 39.3%
- viability, T/C [6]: 44%
- viability, T/C (second compound 1 µM, first compound 0.000316 µM): 21%
- viability, T/C (second compound 1 µM, first compound 0.001 µM): 19.7%
- viability, T/C (second compound 1 µM, first compound 0.00316 µM): 23.7%
- viability, T/C (second compound 1 µM, first compound 0.01 µM): 22.8%
- viability, T/C [7]: 20.2%
- viability, T/C [8]: 20.8%

SMILES: Cn1ncc(Cl)c1-c1cc(C(=O)NC(CN)Cc2cccc(F)c2)sc1Cl (stereo unspecified) + CC(Nc1ncnc2nc[nH]c12)c1cc2cccc(Cl)c2c(=O)n1-c1ccccc1
- IC50 (second compound 0.0316 µM): > 10 µM
- IC50 (second compound 0.1 µM): > 10 µM
- IC50 (second compound 0.316 µM): > 10 µM
- IC50 (second compound 1 µM): > 10 µM
- IC50 (second compound 3.16 µM): > 10 µM
- IC50 (second compound 10 µM): > 10 µM
- viability, T/C [1]: 97.5%
- viability, T/C [2]: 89.3%
- viability, T/C [9]: 96.3%
- viability, T/C [10]: 91.5%
- viability, T/C [11]: 83.9%
- viability, T/C [12]: 59.2%
- viability, T/C [3]: 91.1%
- viability, T/C [4]: 93.3%
- viability, T/C [13]: 129%
- viability, T/C [14]: 91.7%
- viability, T/C [15]: 93.2%
- viability, T/C [16]: 59.8%
- viability, T/C [5]: 90.6%
- viability, T/C [6]: 122%
- viability, T/C [17]: 104%
- viability, T/C [18]: 105%
- viability, T/C [19]: 84.2%
- viability, T/C [20]: 65.5%
- viability, T/C [7]: 99%
- viability, T/C [8]: 115%
- viability, T/C [21]: 106%
- viability, T/C [22]: 98.1%
- viability, T/C [23]: 77.8%
- viability, T/C [24]: 73.3%
- viability, T/C [25]: 83.3%
- viability, T/C [26]: 103%
- viability, T/C [27]: 92.5%
- viability, T/C [28]: 71%
- viability, T/C [29]: 81.8%
- viability, T/C [30]: 61%
- viability, T/C [31]: 99.6%
- viability, T/C [32]: 99.6%
- viability, T/C [33]: 90.6%
- viability, T/C [34]: 94.2%
- viability, T/C [35]: 74.4%
- viability, T/C [36]: 70.1%

SMILES: C[C@@H](NC(=O)c1ncnc(N)c1Cl)c1ncc(C(=O)Nc2cc(C(F)(F)F)c(Cl)cn2)s1 + Cc1nc(NC(=O)N2CCCC2C(N)=O)sc1-c1ccnc(C(C)(C)C(F)(F)F)c1
- IC50 (second compound 0.0316 µM): > 10 µM
- IC50 (second compound 0.1 µM): > 10 µM
- IC50 (second compound 0.316 µM): > 10 µM
- IC50 (second compound 1 µM): > 10 µM
- IC50 (second compound 3.16 µM): > 10 µM
- IC50 (second compound 10 µM): > 10 µM
- viability, T/C [1]: 94.3%
- viability, T/C [2]: 92.5%
- viability, T/C [9]: 77.2%
- viability, T/C [10]: 91.5%
- viability, T/C [11]: 96.2%
- viability, T/C [12]: 69.2%
- viability, T/C [3]: 100%
- viability, T/C [4]: 80.3%
- viability, T/C [13]: 95.8%
- viability, T/C [14]: 77.4%
- viability, T/C [15]: 105%
- viability, T/C [16]: 93.7%
- viability, T/C [5]: 99.8%
- viability, T/C [6]: 82.9%
- viability, T/C [17]: 123%
- viability, T/C [18]: 93.4%
- viability, T/C [19]: 87%
- viability, T/C [20]: 85%
- viability, T/C [7]: 91.4%
- viability, T/C [8]: 102%
- viability, T/C [21]: 99%
- viability, T/C [22]: 102%
- viability, T/C [23]: 81.1%
- viability, T/C [24]: 86.1%
- viability, T/C [25]: 90.8%
- viability, T/C [26]: 91.5%
- viability, T/C [27]: 92.4%
- viability, T/C [28]: 89%
- viability, T/C [29]: 89.5%
- viability, T/C [30]: 83%
- viability, T/C [31]: 76.3%
- viability, T/C [32]: 70.1%
- viability, T/C [33]: 85.7%
- viability, T/C [34]: 68.7%
- viability, T/C [35]: 72.2%
- viability, T/C [36]: 80.2%

— PubChem BioAssay AID1963972 (Molecular Pharmacology Branch, DTP, NCI, 2024)
